For data set [1], the target named is Bovine cardiac myosin (Bos taurus (Bovine), UniProt Q9BE39). Briefly: Cardiac muscle myosin II actin-activated ATPase assay (NADH-coupled). As to conditions: for Ki: 300 nM cardiac myosin, 10 μM actin, 25° C., read-out: CMMII KI; for Ratio CMMII:NMII Ki/EC50: cardiac myosin II Ki over nonmuscle myosin II EC50. It counts as biochemical. Also on record: key to Ratio CMMII:NMII Ki/EC50: NMII-sel: no Ki value for cardiac myosin II could be determined; the compounds had no detectable inhibitory properties versus the cardiac myosin II. The method in brief: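 Inhibitory constants came from a quadratic one-to-one binding fit of 16-point dose-responses (highest final 50 uM, triplicate). Rates were NADH-calibrated fluorescence slopes over 30 min at 25° C, with 300 nM bovine cardiac myosin, 10 μM actin and 1 mM ATP coupled through PK/LDH in pH 7.0 MOPS buffer.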

The target of data set [2] is Rabbit skeletal myosin. The data set is described as follows: Skeletal muscle myosin II actin-activated ATPase assay. It is filed as biochemical. Particulars: 20 nM skeletal muscle myosin II; read-out: SKMMII KI. Summed up:
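Inhibitory constants come from a quadratic one-site fit of 16-point, triplicate dose-response data, highest compound concentration 50 uM. Rates are slopes of NADH fluorescence decline over 30 min, coupling ATP turnover of 20 nM rabbit skeletal myosin II with 10 μM actin and 1 mM ATP via PK/LDH, pH 7.0, 25 °C.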

Data set [3] is described as follows: Photostability, percentage remaining undegraded under illumination or in the dark. Particulars: for Photostability 4 hours: percentage remaining undegraded after 4 hours illumination; for Photostability 24 hours: percentage remaining undegraded after 24 hours illumination; for Photostability Dark (24 h): percentage remaining undegraded in the dark.

Here are results for 20 molecules from patent US20250163056A1, “NONMUSCLE MYOSIN II INHIBITORS” (The University of Florida Research Foundation, Inc., priority 2018, published 2025).

What is called Ki is the equilibrium dissociation constant of an inhibitor or competing ligand from its target.

Molecules are shown by their SMILES.

Chain of Bovine cardiac myosin (Q9BE39 whole entry): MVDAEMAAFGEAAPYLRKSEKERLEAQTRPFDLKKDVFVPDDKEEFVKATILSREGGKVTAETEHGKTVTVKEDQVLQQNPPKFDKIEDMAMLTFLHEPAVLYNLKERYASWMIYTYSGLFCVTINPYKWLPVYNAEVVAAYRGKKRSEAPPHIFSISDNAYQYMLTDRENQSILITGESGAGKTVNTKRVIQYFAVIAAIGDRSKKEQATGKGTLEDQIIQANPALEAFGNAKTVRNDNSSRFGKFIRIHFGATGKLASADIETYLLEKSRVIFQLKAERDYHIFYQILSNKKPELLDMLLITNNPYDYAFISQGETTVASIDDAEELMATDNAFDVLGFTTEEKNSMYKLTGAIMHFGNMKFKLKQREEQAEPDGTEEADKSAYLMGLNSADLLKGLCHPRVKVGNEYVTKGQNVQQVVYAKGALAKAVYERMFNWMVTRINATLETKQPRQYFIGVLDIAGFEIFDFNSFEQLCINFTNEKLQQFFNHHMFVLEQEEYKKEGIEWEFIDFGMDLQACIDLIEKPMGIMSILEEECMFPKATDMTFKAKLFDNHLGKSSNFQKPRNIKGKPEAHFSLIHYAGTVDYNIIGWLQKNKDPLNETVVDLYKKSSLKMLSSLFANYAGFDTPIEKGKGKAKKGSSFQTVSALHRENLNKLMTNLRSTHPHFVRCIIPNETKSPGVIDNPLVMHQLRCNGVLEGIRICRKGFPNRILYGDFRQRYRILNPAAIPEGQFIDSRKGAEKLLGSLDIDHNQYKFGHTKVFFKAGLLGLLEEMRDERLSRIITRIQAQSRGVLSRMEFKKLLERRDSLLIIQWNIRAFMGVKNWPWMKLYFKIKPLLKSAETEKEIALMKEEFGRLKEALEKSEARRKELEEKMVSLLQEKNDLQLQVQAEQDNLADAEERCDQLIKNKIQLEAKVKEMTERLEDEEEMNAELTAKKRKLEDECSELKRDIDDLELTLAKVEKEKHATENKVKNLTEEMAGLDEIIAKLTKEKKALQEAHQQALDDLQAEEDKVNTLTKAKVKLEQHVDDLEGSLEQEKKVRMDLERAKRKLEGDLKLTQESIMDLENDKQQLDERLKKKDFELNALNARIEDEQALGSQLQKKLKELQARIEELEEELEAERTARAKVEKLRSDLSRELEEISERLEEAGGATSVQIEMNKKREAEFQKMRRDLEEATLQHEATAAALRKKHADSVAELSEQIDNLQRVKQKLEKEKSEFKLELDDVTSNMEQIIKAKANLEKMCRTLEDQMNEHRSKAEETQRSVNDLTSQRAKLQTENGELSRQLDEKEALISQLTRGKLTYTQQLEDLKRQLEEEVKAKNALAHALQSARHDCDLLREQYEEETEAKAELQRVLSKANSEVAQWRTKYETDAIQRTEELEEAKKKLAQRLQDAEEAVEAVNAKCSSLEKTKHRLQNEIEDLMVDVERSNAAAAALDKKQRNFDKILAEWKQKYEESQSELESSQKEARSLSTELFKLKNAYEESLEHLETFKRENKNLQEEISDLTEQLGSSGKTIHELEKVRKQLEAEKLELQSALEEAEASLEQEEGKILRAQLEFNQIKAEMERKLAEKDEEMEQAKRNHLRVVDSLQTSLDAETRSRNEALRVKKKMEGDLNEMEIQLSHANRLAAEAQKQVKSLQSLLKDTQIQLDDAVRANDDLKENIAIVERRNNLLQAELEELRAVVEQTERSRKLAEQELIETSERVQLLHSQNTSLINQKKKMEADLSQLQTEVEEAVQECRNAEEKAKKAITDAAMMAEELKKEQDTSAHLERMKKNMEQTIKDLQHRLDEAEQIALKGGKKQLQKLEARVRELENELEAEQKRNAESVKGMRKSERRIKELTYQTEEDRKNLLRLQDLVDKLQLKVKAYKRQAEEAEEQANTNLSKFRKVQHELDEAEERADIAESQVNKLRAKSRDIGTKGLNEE
Chain of Bovine cardiac myosin (P85100 whole entry partner): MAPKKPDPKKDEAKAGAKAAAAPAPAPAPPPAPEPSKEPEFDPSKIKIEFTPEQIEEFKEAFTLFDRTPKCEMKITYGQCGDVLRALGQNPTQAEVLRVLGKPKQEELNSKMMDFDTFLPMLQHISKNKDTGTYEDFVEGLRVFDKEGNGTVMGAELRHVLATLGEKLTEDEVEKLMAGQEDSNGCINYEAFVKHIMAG
Chain of Bovine cardiac myosin (Q3SZE5 whole entry partner): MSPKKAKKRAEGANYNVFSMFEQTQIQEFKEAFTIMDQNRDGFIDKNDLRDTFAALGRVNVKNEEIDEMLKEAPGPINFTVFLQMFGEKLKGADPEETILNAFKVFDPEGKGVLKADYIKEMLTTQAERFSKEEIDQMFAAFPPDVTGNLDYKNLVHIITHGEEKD

Regarding `Cc1sc2c(c1C)C(=O)[C@]1(O)CCN(c3ccc(I)cc3)C1=N2` [BPN-0027081], in data set [1], the Ki was 9 µM and the “Ratio CMMII:NMII Ki/EC50” value is 8.2. Moreover, the Ki in data set [2] came to 0.29 µM. For the same molecule, in data set [3], the “Photostability 4 hours” value was determined as 97.0%, the “Photostability 24 hours” value is reported as 46.3% and the “Photostability Dark (24 h)” value worked out at 96.9%.
`Cc1cc2c(cc1C(F)(F)F)N=C1N(c3ccc4ccoc4c3)CC[C@@]1(O)C2=O` [BPN-0027108]: the “Ratio CMMII:NMII Ki/EC50” value in data set [1] is “NMII-sel”. Also, in data set [2], the Ki stood at 10 µM. Further, in data set [3], the “Photostability 4 hours” value is given as over 99%, the “Photostability 24 hours” value turned out to be 97.0% and the “Photostability Dark (24 h)” value is over 99%.
As to `Cc1cc2c(cc1C)C(=O)[C@]1(O)CCN(c3ccc(I)cc3)C1=N2` [BPN-0027109], in data set [1], the Ki worked out at 11 µM and the “Ratio CMMII:NMII Ki/EC50” value is 21.2. The Ki in data set [2] amounted to 0.27 µM. Further, in data set [3], the “Photostability 4 hours” value was determined as 82.5%, the “Photostability 24 hours” value was 29.4% and the “Photostability Dark (24 h)” value was over 99%.
With `Cc1nc2cc(N3CC[C@@]4(O)C(=O)c5cc(C)c(C)cc5N=C34)ccc2o1` [BPN-0027118], in data set [1], the Ki was found to be 5.5 µM and the “Ratio CMMII:NMII Ki/EC50” value is listed as 4.6. In addition, the Ki in data set [2] came out at 0.68 µM. Besides, in data set [3], the “Photostability 4 hours” value is 68.6%, the “Photostability 24 hours” value was found to be 9.2% and the “Photostability Dark (24 h)” value came to 94.4%.
Take `Cc1cc2c(cc1C)C(=O)[C@]1(O)CCN(c3ccc4scnc4c3)C1=N2` [BPN-0027121]: in data set [1], the Ki stood at 19 µM and the “Ratio CMMII:NMII Ki/EC50” value worked out at 7.6. Further, the Ki in data set [2] was 2.7 µM. Further, in data set [3], the “Photostability 4 hours” value worked out at 75.6%, the “Photostability 24 hours” value worked out at 6.5% and the “Photostability Dark (24 h)” value was 98.6%.
For the molecule `Cc1cc2c(cc1C)C(=O)[C@]1(O)CCN(c3ccc4ncsc4c3)C1=N2` [BPN-0027122], in data set [1], the Ki came to 45 µM and the “Ratio CMMII:NMII Ki/EC50” value was found to be 26.5. For the same molecule, the Ki in data set [2] came to 5.9 µM. Moreover, in data set [3], the “Photostability 4 hours” value is listed as 69.5%, the “Photostability 24 hours” value was 5.3% and the “Photostability Dark (24 h)” value turned out to be 97.1%.
As for `Cn1ncc2c1N=C1N(c3ccccc3)CC[C@@]1(O)C2=O` [BPN-0027159], in data set [1], the “Ratio CMMII:NMII Ki/EC50” value is reported as “NMII-sel”. The inhibition constant (Ki) in data set [2] came to 330 µM. In data set [3], the “Photostability 4 hours” value is 89.9%, the “Photostability 24 hours” value stood at 22.5% and the “Photostability Dark (24 h)” value is over 99%.
For the molecule `Cc1ccc2c(c1)C(=O)[C@]1(O)CCN(c3ccc4ncc(C)cc4c3)C1=N2` [BPN-0027160], in data set [1], the Ki was found to be 30 µM and the “Ratio CMMII:NMII Ki/EC50” value is 10.3. Besides, in data set [2], the inhibition constant (Ki) worked out at 0.2 µM. For the same molecule, in data set [3], the “Photostability 4 hours” value was 95.5%, the “Photostability 24 hours” value is given as 73.0% and the “Photostability Dark (24 h)” value is reported as over 99%.
With `Cc1cc2cc(N3CC[C@@]4(O)C(=O)c5cc(C)c(C)cc5N=C34)ccc2cn1` [BPN-0027161], in data set [1], the inhibitory constant (Ki) was determined as 24 µM and the “Ratio CMMII:NMII Ki/EC50” value stood at 21.8. In data set [2], the Ki came to 0.24 µM. In data set [3], the “Photostability 4 hours” value is reported as 78.6%, the “Photostability 24 hours” value turned out to be 60.2% and the “Photostability Dark (24 h)” value turned out to be 98.3%.
Take `Cc1cc2c(s1)C(=O)[C@]1(O)CCN(c3ccc(C#N)c(Cl)c3)C1=N2` [BPN-0027162]: in data set [1], the Ki turned out to be 52 µM and the “Ratio CMMII:NMII Ki/EC50” value turned out to be 6.6. Moreover, the Ki in data set [2] worked out at 4.5 µM. Further, in data set [3], the “Photostability 4 hours” value turned out to be 98.5%, the “Photostability 24 hours” value is 95.9% and the “Photostability Dark (24 h)” value is on record as over 99%.
Regarding `Cc1ccc2c(c1)C(=O)[C@]1(O)CCN(c3ccc(CO)c(Cl)c3)C1=N2` [BPN-0027163], in data set [1], the inhibition constant (Ki) is 21 µM and the “Ratio CMMII:NMII Ki/EC50” value came out at 5.0. Further, the inhibition constant Ki in data set [2] is 5.9 µM. Besides, in data set [3], the “Photostability 4 hours” value is on record as 95.0%, the “Photostability 24 hours” value is 44.6% and the “Photostability Dark (24 h)” value is recorded as over 99%.
With `Cc1cc2c(s1)C(=O)[C@]1(O)CCN(c3ccc4ncccc4c3)C1=N2` [BPN-0027181], in data set [1], the Ki worked out at 91 µM and the “Ratio CMMII:NMII Ki/EC50” value was 33.7. For the same molecule, the Ki in data set [2] was 3.1 µM. Also, in data set [3], the “Photostability 4 hours” value was over 99%, the “Photostability 24 hours” value was 99.0% and the “Photostability Dark (24 h)” value is recorded as over 99%.
As to `Cc1cc2c(cc1F)C(=O)[C@]1(O)CCN(c3ccc4ncsc4c3)C1=N2` [BPN-0027196], the “Ratio CMMII:NMII Ki/EC50” value in data set [1] is on record as “NMII-sel”. For the same molecule, the Ki in data set [2] stood at 12 µM. Moreover, in data set [3], the “Photostability 4 hours” value is 94.9%, the “Photostability 24 hours” value is reported as 7.1% and the “Photostability Dark (24 h)” value is over 99%.
`Cc1cc2c(cc1F)C(=O)[C@]1(O)CCN(c3ccc4ncccc4c3)C1=N2` [BPN-0027197]: in data set [1], the “Ratio CMMII:NMII Ki/EC50” value is reported as “NMII-sel”. In addition, in data set [2], the Ki came out at 2.4 µM. In addition, in data set [3], the “Photostability 4 hours” value is over 99%, the “Photostability 24 hours” value is 36.4% and the “Photostability Dark (24 h)” value is recorded as over 99%.
On to `Cc1nc2cc(N3CC[C@@]4(O)C(=O)c5cc(F)c(C)cc5N=C34)ccc2o1` [BPN-0027198], for which, in data set [1], the Ki is 10.5 µM and the “Ratio CMMII:NMII Ki/EC50” value is reported as 3.6. Further, in data set [2], the Ki worked out at 0.88 µM. For the same molecule, in data set [3], the “Photostability 4 hours” value was 89.9%, the “Photostability 24 hours” value was found to be 21.4% and the “Photostability Dark (24 h)” value was over 99%.
Consider `Cc1nc2ccc(N3CC[C@@]4(O)C(=O)c5cc(C)c(C)cc5N=C34)cc2o1` [BPN-0027213], for which, in data set [1], the Ki was found to be 33 µM and the “Ratio CMMII:NMII Ki/EC50” value is 11.4. Moreover, the Ki in data set [2] turned out to be 0.45 µM. In data set [3], the “Photostability 4 hours” value came to 46.3%, the “Photostability 24 hours” value is reported as 1.0% and the “Photostability Dark (24 h)” value was found to be 85.0%.
Consider `Cc1cc2c(cc1C)C(=O)[C@]1(O)CCN(c3ccc4ncccc4c3)C1=N2` [BPN-0027215], for which the “Ratio CMMII:NMII Ki/EC50” value in data set [1] is “NMII-sel”. In addition, the Ki in data set [2] stood at 1 µM. For the same molecule, in data set [3], the “Photostability 4 hours” value is 73.2%, the “Photostability 24 hours” value is on record as 9.2% and the “Photostability Dark (24 h)” value was 97.3%.
With `Cc1cc2c(s1)N=C1N(c3ccc4ncccc4c3)CC[C@@]1(O)C2=O` [BPN-0027216], in data set [1], the inhibition constant (Ki) was 31 µM and the “Ratio CMMII:NMII Ki/EC50” value was found to be 11.5. For the same molecule, the Ki in data set [2] was 4.6 µM. In addition, in data set [3], the “Photostability 4 hours” value worked out at 97.2%, the “Photostability 24 hours” value is listed as 85.0% and the “Photostability Dark (24 h)” value was over 99%.
Regarding `CCc1cc2c(s1)N=C1N(c3ccc4ncccc4c3)CC[C@@]1(O)C2=O` [BPN-0027217], in data set [1], the inhibition constant Ki is 160 µM and the “Ratio CMMII:NMII Ki/EC50” value is 20.5. In addition, the Ki in data set [2] worked out at 21 µM. In addition, in data set [3], the “Photostability 4 hours” value is 97.9%, the “Photostability 24 hours” value is 76.0% and the “Photostability Dark (24 h)” value is over 99%.
`O=C1c2cc(C(F)(F)F)ccc2N=C2N(c3ccc4ncccc4c3)CC[C@@]12O` [BPN-0027218]: the “Ratio CMMII:NMII Ki/EC50” value in data set [1] was “NMII-sel”. Also, the Ki in data set [2] was found to be 40 µM. Further, in data set [3], the “Photostability 4 hours” value stood at 90.0%, the “Photostability 24 hours” value is reported as 4.4% and the “Photostability Dark (24 h)” value came out at 95.5%.
